Test results as given in PMC8985489 (Alzheimer's & Dementia : Translational Research & Clinical …, 2022).

Assays:
[1] = target: T1, Aβ1-40 (Homo sapiens, UniProt P05067); experiment: Thioflavin T; type: biochemical
[2] = target: T1, Aβ1-40; experiment: Circular dichroism; type: biochemical
[3] = test system: IL-1β production and release from microglia; experiment: IL-1β production and release from microglia; type: cell-based; conditions: at 50 and 100 μM
[4] = test system: IDO-1; conditions: cited from earlier work
[5] = test system: SK-N-AS neuroblastoma cells; experiment: Aβ production in mammalian cells; type: cell-based, human; conditions: SK-N-AS incubated with 1 μg/ml, within 3 h
[6] = target: biotinylated Aβ1-42 (Homo sapiens, UniProt P05067); experiment: Aβ anti-oligomerization assay; type: biochemical
biotinylated Aβ1-42, sequence (P05067 672-713): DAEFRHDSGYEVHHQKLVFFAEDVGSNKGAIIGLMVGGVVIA

[7] = target: Human Recombinant IDO-1 (Homo sapiens, UniProt P14902); experiment: HR-IDO-1 enzymatic inhibition assay; type: biochemical
Human Recombinant IDO-1, sequence (P14902 whole entry): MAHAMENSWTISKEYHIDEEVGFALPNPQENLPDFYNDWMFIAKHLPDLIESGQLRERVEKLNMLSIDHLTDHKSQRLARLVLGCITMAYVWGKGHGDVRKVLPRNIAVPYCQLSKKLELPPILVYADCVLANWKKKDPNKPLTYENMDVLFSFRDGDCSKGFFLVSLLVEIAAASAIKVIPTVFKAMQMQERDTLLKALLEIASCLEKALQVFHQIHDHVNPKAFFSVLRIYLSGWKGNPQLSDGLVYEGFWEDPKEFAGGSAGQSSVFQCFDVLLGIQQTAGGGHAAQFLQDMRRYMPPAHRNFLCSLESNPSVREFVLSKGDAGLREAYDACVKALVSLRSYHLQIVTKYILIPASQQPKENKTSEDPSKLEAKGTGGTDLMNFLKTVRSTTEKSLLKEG

[8] = target: INF-γ-induced IDO-1 activity (Homo sapiens, UniProt P14902); experiment: INF-γ-induced IDO-1 activity; type: cell-based
INF-γ-induced IDO-1 activity, sequence (P14902 whole entry): as above

T1 sequence (P05067 672-711 limits assumed): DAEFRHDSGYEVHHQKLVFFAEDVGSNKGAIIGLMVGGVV

Row | Molecule | Aβ anti-aggregant activity in ThT assay [1] | Aβ anti-aggregant activity in CD assay [2] | other results
1 | NCCc1c[nH]c2ccc(O)cc12 [5‐hydroxytryptamine] |  |  | IL-1β production and release from microglia [3]: modulated
2 | lipoteichoic acid [LTA] |  |  | Aβ concentrations in the cell lysate [5]: 800 pg/mL
3 | N[C@@H](Cc1c[nH]c2ccccc12)C(=O)O [tryptophan] |  |  | activity in initial screen against Aβ aggregation ([6]; biotinylated Aβ1-42 anti-oligomerization screen): inactive; activity in initial screen against Aβ aggregation ([1]; kinetic ThT Aβ1-40 anti-aggregation screen): inactive
4 | COc1ccc2[nH]cc(/C=C/c3ccc(O)cc3)c2c1 [4b, (E)‐4‐(2‐[5‐methoxy‐1H‐indol‐3‐yl]vinyl)phenol] |  |  | IC50 [7]: 2.8 µM; IC50 [6]: 6.5 µM; IC50 [8]: 10.8 µM
5 | lipopolysaccharide [LPS] |  |  | Aβ concentrations in the cell lysate [5]: 800 pg/mL
6 | O=C(O)c1ccccc1O [salicylate] | exhibited Aβ anti‐aggregant activities | exhibited Aβ anti‐aggregant activities | 

The next lines start with results.

Row | Aβ anti-aggregant activity in ThT assay [1] | Aβ anti-aggregant activity in CD assay [2] | Molecule | other results
7 | exhibited Aβ anti‐aggregant activities | exhibited Aβ anti‐aggregant activities | tannate | 
8 | exhibited Aβ anti‐aggregant activities | exhibited Aβ anti‐aggregant activities | COc1cc(/C=C/C(=O)O)ccc1O [ferulate] | IDO-1 enzymatic activity [4]: shown to inhibit IDO‐1 enzymatic activity
9 | exhibited Aβ anti‐aggregant activities | exhibited Aβ anti‐aggregant activities | Oc1ccc(/C=C/c2cc(O)cc(O)c2)cc1 [resveratrol] | 
10 | exhibited Aβ anti‐aggregant activities | exhibited Aβ anti‐aggregant activities | COc1cc(/C=C/C(=O)O)cc(OC)c1O [sinapate] | 
11 | exhibited Aβ anti‐aggregant activities | exhibited Aβ anti‐aggregant activities | O=C(O)/C=C/c1ccc(O)c(O)c1 [caffeiate] | 
12 | exhibited Aβ anti‐aggregant activities | exhibited Aβ anti‐aggregant activities | O=C(O)/C=C/c1ccc(O)cc1 [4‐coumarate] | 
